Laboratory results: patent US9676818B2, “Toll-like receptor 2-agonistic lipopeptides, and method of making the same” (University of Kansas, priority 2013, dated 2017)
pEC50: −log10 of the molar value. Like-named read-outs stand apart in the source and are kept apart here.

Target: human TLR2 (Homo sapiens (Human), UniProt O60603)
Experiment: human TLR2-specific NF-κB reporter gene assay (HEK-Blue cells)
Format: cell-based
Conditions: for EC50: human TLR2-specific reporter gene assay, ND = no activity detected at 10 μM, read-out: TLR2-Agonistic Activity (EC50 in nM); for absolute magnitude of TLR2-induced NF-κB activation: hTLR2, FIG. 1
Source text: The induction of NF-κB in a TLR2-specific reporter gene assay was quantified using HEK-BLUE™ cells as previously described (Wu, W. et al., J. Med. Chem. 2010, 53, 3198-3213). HEK293 cells stably transfected with either human TLR2 or murine TLR2 and alkaline phosphatase (sAP) were obtained from InvivoGen (San Diego, Calif.), and were maintained in HEK-BLUE™ Selection medium containing zeocin and normocin. Stable expression of secreted alkaline phosphatase (sAP) under control of NF-κB promoters is inducible by TLR2 agonists, and extracellular sAP in the supernatant is proportional to NF-κB induction. HEK-Blue cells were incubated at a density of ˜10^5 cells/mL in a volume of 80 μL/well, in 384-well, flat-bottomed, cell culture-treated microtiter plates until confluency was achieved, and then stimulated with serially-diluted aliquots of compounds for 12 h. sAP was assayed spectrophoto-metrically using an alkaline phosphatase-specific chromogen (present in the HEK-detection medium as supplied by the vendor) at 620 nm. For antagonism assays, HEK-Blue cells were incubated at a density of ˜10^5 cells/mL in a volume of 80 μL/well and stimulated with either PAM2CS (1 μg/mL) or lipoteichoic acid (1 μg/mL) in the presence of graded concentrations of the test compounds as described for TLR7 previously (Shukla, N. M.; et al., Bioorg. Med. Chem. Lett. 2009, 19, 2211-2214; Shukla, N. M. et al., Bioorg. Med. Chem. 2011, 19, 3801-3811).

Sequence of human TLR2 (O60603 21-784): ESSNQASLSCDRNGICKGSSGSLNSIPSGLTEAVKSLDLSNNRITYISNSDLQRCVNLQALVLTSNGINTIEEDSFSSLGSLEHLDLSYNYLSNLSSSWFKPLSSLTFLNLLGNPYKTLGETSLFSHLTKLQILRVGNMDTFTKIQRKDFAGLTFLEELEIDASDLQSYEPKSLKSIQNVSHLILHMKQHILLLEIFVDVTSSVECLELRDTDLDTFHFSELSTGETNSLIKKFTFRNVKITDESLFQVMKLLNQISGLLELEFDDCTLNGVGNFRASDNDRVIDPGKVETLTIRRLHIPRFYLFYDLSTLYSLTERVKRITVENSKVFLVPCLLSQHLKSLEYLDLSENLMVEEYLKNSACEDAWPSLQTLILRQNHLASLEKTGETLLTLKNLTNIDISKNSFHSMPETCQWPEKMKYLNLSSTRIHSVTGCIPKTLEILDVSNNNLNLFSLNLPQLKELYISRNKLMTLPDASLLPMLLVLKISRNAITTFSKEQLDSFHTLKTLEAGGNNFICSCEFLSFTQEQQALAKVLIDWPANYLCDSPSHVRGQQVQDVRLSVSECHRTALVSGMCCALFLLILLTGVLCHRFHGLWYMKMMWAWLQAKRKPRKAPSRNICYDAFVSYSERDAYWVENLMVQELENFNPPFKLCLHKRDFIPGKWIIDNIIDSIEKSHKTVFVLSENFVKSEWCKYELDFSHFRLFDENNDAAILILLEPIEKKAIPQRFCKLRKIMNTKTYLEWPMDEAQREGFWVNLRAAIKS

Row | Structure (SMILES) | hTLR2-agonistic activity in words (hTLR2 reporter gene assay) | EC50 | absolute magnitude of TLR2-induced NF-κB activation | pEC50 (hTLR2 reporter gene assay, read-out: EC50 in engaging hTLR2)
1 | CCCCCCCCCCCCCCN(CCCCCCCCCCCCCC)CC(=O)OCCSC[C@H](N)C(=O)N[C@@H](CO)C(=O)OC [Compound 10a, (S)-methyl 2-((R)-2-amino-3-((2-(2-(ditetradecylamino)acetoxy)ethyl)thio)propan-amido)-3-hydroxypropanoate] | completely inactive | > 10000 nM |  | 
2 | CCCCCCCCCCCCCCCC(=O)OCCSC[C@H](NS(C)(=O)=O)C(=O)N[C@@H](CO)C(=O)OC [Compound 11j, 2-(((R)-3-(((S)-3-hydroxy-1-methoxy-1-oxopropan-2-yl)amino)-2-(methylsulfonamido)-3-oxo-propyl)thio)ethyl palmitate] | inactive | > 10000 nM |  | 
3 | CCCCCCCCCCC[C@H](CC(=O)OCCSC[C@H](NC(C)=O)C(=O)N[C@@H](CO)C(=O)OC)OC(=O)CCC [Compound 83] |  | 0.345 nM |  | 
4 | CCCCCCCCCCCCCCCC(=O)O[C@H](CCCCCCCCCCC)CC(=O)OCCSC[C@H](NC(C)=O)C(=O)N[C@@H](CO)C(=O)OC [Compound 89] |  | 4.78 nM |  | 
5 | CCCCCCCCCCCCCC(=O)O[C@H](CCCCCCCCCCC)CC(=O)OCCSC[C@H](NC(C)=O)C(=O)N[C@@H](CO)C(=O)OC [Compound 88] |  | 9.52 nM |  | 
6 | CCCCCCCCCCCCCCCC(=O)OCCSC[C@H](NC(C)=O)C(=O)N[C@@H](COC(=O)c1cccnc1)C(=O)OC [Compound 28, (S)-2-((R)-2-Acetamido-3-((2-(palmitoyloxy)ethyl)thio)propanamido)-3-methoxy-3-oxopropyl nicotinate] |  | 1.27 nM |  | 
7 | CCCCCCCCCCC[C@H](CC(=O)OCCSC[C@H](NC(C)=O)C(=O)N[C@@H](CO)C(=O)OC)OC(C)=O [Compound 82] |  | 0.182 nM |  | 
8 | CCCCCCCC(=O)OCCSC[C@H](N)C(=O)N[C@@H](CO)C(=O)OC [Compound 6b, 2-(((R)-2-amino-3-(((S)-3-hydroxy-1-methoxy-1-oxopropan-2-yl)amino)-3-oxopropyl)thio)ethyl octanoate] |  | > 10000 nM |  | 
9 | CCCCCCCCCCC[C@H](CC(=O)OCCSC[C@H](NC(C)=O)C(=O)N[C@@H](CO)C(=O)OC)OC(=O)CCCCC [Compound 84] |  | 1.5 nM |  | 
10 | CCCCCCCCCCCCCCCC(=O)N[C@@H](CSCCOC(=O)CCCCCCCCCCCCCCC)C(=O)N[C@@H](CO)C(=O)OC [Compound 11g, 2-(((R)-3-(((S)-3-hydroxy-1-methoxy-1-oxopropan-2-yl)amino)-3-oxo-2-palmitamidopropyl)thio)ethyl palmitate] | complete loss of activity | > 10000 nM |  | 
11 | CCCCCCCCCCCCCCCC(=O)OCCSC[C@H](NC(=O)C(Cl)(Cl)Cl)C(=O)N[C@@H](CO)C(=O)OC [Compound 11i, 2-(((R)-3-(((S)-3-hydroxy-1-methoxy-1-oxopropan-2-yl)amino)-3-oxo-2-(2,2,2-trichloroacetamido)propyl)thio)ethyl palmitate] | inactive | > 10000 nM |  | 
12 | CCCCCCCCCCCCCCCC(=O)OCCSC[C@H](NC(=O)C(F)(F)F)C(=O)N[C@@H](CO)C(=O)OC [Compound 11h, 2-(((R)-3-(((S)-3-hydroxy-1-methoxy-1-oxopropan-2-yl)amino)-3-oxo-2-(2,2,2-trifluoro-acetamido)propyl)thio)ethyl palmitate] |  |  | low magnitude | 8.35
13 | CCCCCCCCCCCCCCCC(=O)OCCSC[C@H](N)C(=O)N[C@@H](COC(C)=O)C(=O)OC [Compound 14a, 2-(((R)-3-(((S)-3-acetoxy-1-methoxy-1-oxopropan-2-yl)amino)-2-amino-3-oxopropyl)thio)ethyl palmitate] | virtually indistinguishable from that of 6d | 2.97 nM |  | 
14 | CCCCCCCCCCC[C@H](CC(=O)OCCSC[C@H](NC(C)=O)C(=O)N[C@@H](CO)C(=O)OC)OC(=O)CCCCCCC [Compound 85] |  | 3.08 nM |  | 
15 | CCCCCCCCCCCCCCCC(=O)OCCSC[C@H](NC(C)=O)C(=O)N[C@@H](CO)C(=O)OC [Compound 11d, 2-(((R)-2-acetamido-3-(((S)-3-hydroxy-1-methoxy-1-oxopropan-2-yl)amino)-3-oxopropyl)thio)ethyl palmitate] |  | 1.01 nM | far greater | 
16 | CCCCCCCCCCCC(=O)OCCSC[C@H](N)C(=O)N[C@@H](CO)C(=O)OC [Compound 6c, 2-(((R)-2-amino-3-(((S)-3-hydroxy-1-methoxy-1-oxopropan-2-yl)amino)-3-oxopropyl)thio)ethyl dodecanoate] |  | > 10000 nM |  | 

Row | Structure (SMILES) | hTLR2-agonistic activity in words (hTLR2 reporter gene assay) | EC50 | absolute magnitude of TLR2-induced NF-κB activation | pEC50 (hTLR2 reporter gene assay, read-out: EC50 in engaging hTLR2)
17 | CCCCCCCCCCCCCCCC(=O)OCCSC[C@H](N)C(=O)N[C@@H](COC(=O)CCCCCCCCCCCCCCC)C(=O)OC [Compound 14c, 2-(((R)-2-amino-3-(((S)-1-methoxy-1-oxo-3-(palmitoyloxy)propan-2-yl)amino)-3-oxopropyl)thio)ethyl palmitate] |  | 5.95 nM |  | 
18 | CCCCCCCCCCCCCCCC(=O)OCCCSC[C@H](NC(C)=O)C(=O)N[C@@H](CO)C(=O)OC [Compound 16, 3-(((R)-2-acetamido-3-(((S)-3-hydroxy-1-methoxy-1-oxopropan-2-yl)amino)-3-oxopropyl)thio)propyl palmitate] | active, albeit much weaker in potency than 11d | 5.52 nM |  | 
19 | CCCCCCCCCCCCCCNCC(=O)OCCSC[C@H](N)C(=O)N[C@@H](CO)C(=O)OC [Compound 10b, (S)-methyl 2-((R)-2-amino-3-((2-(2-(tetradecylamino)acetoxy)ethyl)thio)propanamido)-3-hydroxypropanoate] | completely inactive | > 10000 nM |  | 
20 | CCCCCCCCCCC[C@H](CC(=O)OCCSC[C@H](NC(C)=O)C(=O)N[C@@H](CO)C(=O)OC)OC(=O)CCCCCCCCC [Compound 86] |  | 12.9 nM |  | 
21 | CCCCCCCCCCC[C@H](CC(=O)OCCSC[C@H](NC(C)=O)C(=O)N[C@@H](CO)C(=O)OC)OC=O [Compound 66] |  | 0.808 nM |  | 
22 | CCCCCCCCCCCCCc1cn(CCSC[C@H](NC(C)=O)C(=O)N[C@@H](CO)C(=O)OC)nn1 [Compound 41, (S)-Methyl 2-((R)-2-acetamido-3-((2-(4-tridecyl-1H-1,2,3-triazol-1-yl)ethyl)thio)propanamido)-3-hydroxypropanoate] |  | 260 nM |  | 
23 | CCCCCCCCCCCCCCCCOC(=O)NCCSC[C@H](NC(C)=O)C(=O)N[C@@H](CO)C(=O)OC [Compound 48, (2S,5R)-Methyl 5-acetamido-2-(hydroxymethyl)-4,11-dioxo-12-oxa-7-thia-3,10-diazaoctacosan-1-oate] |  | 0.0615 nM |  | 
24 | CCCCCCCCCCCCCCCCNC(=O)OCCSC[C@H](NC(C)=O)C(=O)N[C@@H](CO)C(=O)OC [Compound 45, (2S,5R)-Methyl 5-acetamido-2-(hydroxymethyl)-4,11-dioxo-10-oxa-7-thia-3,12-diazaoctacosan-1-oate] |  | 0.323 nM |  | 
25 | CCCCCCCCCCC[C@@H](O)CC(=O)OCCSC[C@H](NC(C)=O)C(=O)N[C@@H](CO)C(=O)OC [Compound 65] |  | 1.13 nM |  | 
26 | CCCCCCCCCCCCCCCC(=O)OCCSC[C@H](NS(=O)(=O)c1ccc(C)cc1)C(=O)N[C@@H](CO)C(=O)OC [Compound 11l, 2-(((R)-3-(((S)-3-hydroxy-1-methoxy-1-oxopropan-2-yl)amino)-2-(4-methylphenylsulfonamido)-3-oxopropyl)thio)ethyl palmitate] | inactive | > 10000 nM |  | 
27 | CCCCCCCCCCCCCCCCn1cc(CCSC[C@H](NC(C)=O)C(=O)N[C@@H](CO)C(=O)OC)nn1 [Compound 38, (S)-Methyl 2-((R)-2-acetamido-3-((2-(1-hexadecyl-1H-1,2,3-triazol-4-yl)ethyl)thio)propanamido)-3-hydroxypropanoate] |  | 641 nM |  | 
28 | CCCCCCCCCCCCCCCC(=O)OCCSC[C@H](NCC)C(=O)N[C@@H](CO)C(=O)OC [Compound 11a, 2-(((R)-2-(ethylamino)-3-(((S)-3-hydroxy-1-methoxy-1-oxopropan-2-yl)amino)-3-oxopropyl)thio)ethyl palmitate] | inactive | > 10000 nM |  | 
29 | CCCCCCCCCCCCCCCCN[C@@H](CSCCOC(=O)CCCCCCCCCCCCCCC)C(=O)N[C@@H](CO)C(=O)OC [Compound 11c, 2-(((R)-2-(hexadecylamino)-3-(((S)-3-hydroxy-1-methoxy-1-oxopropan-2-yl)amino)-3-oxopropyl)thio)ethyl palmitate] | inactive | > 10000 nM |  | 
30 | CCCCCCCCCCCCCCCC(=O)OCCSC[C@H](NCCCCCCCC)C(=O)N[C@@H](CO)C(=O)OC [Compound 11b, 2-(((R)-3-(((S)-3-hydroxy-1-methoxy-1-oxopropan-2-yl)amino)-2-(octylamino)-3-oxopropyl)thio)ethyl palmitate] | inactive | > 10000 nM |  | 
31 | CCCCCCCCCCCCCCCC(=O)OCCSC[C@H](NC(=O)CCC)C(=O)N[C@@H](CO)C(=O)OC [Compound 11e, 2-(((R)-2-butyramido-3-(((S)-3-hydroxy-1-methoxy-1-oxopropan-2-yl)amino)-3-oxopropyl)thio)ethyl palmitate] |  | 1.64 nM |  | 
